Laboratory results as given in PMC5215716, “A Target-Based Whole Cell Screen Approach To Identify Potential Inhibitors of Mycobacterium tuberculosis Signal Peptidase” (ACS Infectious Diseases, 2016).
Converted amounts (≈) assume the structure as drawn.

System: M. tuberculosis strain expressing LepB under the hsp60 promotor (LepB-OE)
Assay: microbe, parasite or virus in culture
Assay type: cell-based
Details: Mycobacterium tuberculosis, average ± SD of at least two experiments

C/C(=N\Nc1nc(C)cc(C)n1)c1ccccn1 [Compound 1] was tested, and the MIC was 18 ± 8 µM (≈ 4.34 µg/mL).
In the case of Oc1ccccc1/C=N/Nc1nc(-c2ccccc2)cs1 [Compound 2], the MIC is reported as 160 ± 57 µM (≈ 47.3 µg/mL).
C/C(=N\NC(=O)c1ccc(N2CCCC2=O)cc1)c1ccccn1 [Compound 11] was tested, and the MIC was 5.6 ± 0.6 µM (≈ 1.81 µg/mL).
Cc1cc(C)nc(NN=C(c2ccccc2)c2ccccc2)n1 [Compound 27] was tested, and the MIC was 103 ± 38 µM (≈ 31.1 µg/mL).
Molecule C/C(=N\NC(=N)c1ccccn1)c1ccccn1 [Compound 30] has an MIC greater than 200 µM.
C/C(=N\NC(=O)C1CCCN(S(=O)(=O)c2ccccc2)C1)c1ccccn1 (centres unmarked) [Compound 38] gave an MIC of 9.2 ± 4 µM (≈ 3.56 µg/mL).
C/C(=N\NC(=O)c1ccoc1C)c1ccccn1 [Compound 39] gave an MIC of 6.5 ± 2.2 µM (≈ 1.58 µg/mL).
C/C(=N\NC(=O)C1CC1)c1ccccn1 [Compound 40] was tested, and the MIC was 27 ± 2 µM (≈ 5.49 µg/mL).
